Test results reported in ChEMBL document CHEMBL1781873, “Synthesis and antibacterial property of pyrrolopyrano quinolinones and pyrroloquinolines” (2011).
Active and inactive are the calls of the source. The rule behind the calls is not given here.

How the values were obtained:
[1] = tested on: Salmonella typhi; assay: Antibacterial activity against Salmonella typhi at 10 ug after 24 hrs by disc diffusion assay; type: functional, Salmonella enterica subsp. enterica serovar Typhi; conditions: Salmonella enterica, read-out: IZ
[2] = tested on: Salmonella typhi; assay: Antibacterial activity against Salmonella typhi at 15 ug after 24 hrs by disc diffusion assay; type: functional, Salmonella enterica subsp. enterica serovar Typhi; conditions: Salmonella enterica, read-out: IZ
[3] = tested on: Salmonella typhi; assay: Antibacterial activity against Salmonella typhi at 20 ug after 24 hrs by disc diffusion assay; type: functional, Salmonella enterica subsp. enterica serovar Typhi; conditions: Salmonella enterica, read-out: IZ
[4] = tested on: Salmonella typhi; assay: Antibacterial activity against Salmonella typhi at 25 ug after 24 hrs by disc diffusion assay; type: functional, Salmonella enterica subsp. enterica serovar Typhi; conditions: Salmonella enterica, read-out: IZ
[5] = tested on: Bacillus subtilis; assay: Antibacterial activity against Bacillus subtilis at 10 ug after 24 hrs by disc diffusion assay; type: functional; conditions: read-out: IZ
[6] = tested on: Bacillus subtilis; assay: Antibacterial activity against Bacillus subtilis at 15 ug after 24 hrs by disc diffusion assay; type: functional; conditions: read-out: IZ
[7] = tested on: Bacillus subtilis; assay: Antibacterial activity against Bacillus subtilis at 20 ug after 24 hrs by disc diffusion assay; type: functional; conditions: read-out: IZ
[8] = tested on: Bacillus subtilis; assay: Antibacterial activity against Bacillus subtilis at 25 ug after 24 hrs by disc diffusion assay; type: functional; conditions: read-out: IZ
[9] = tested on: Escherichia coli; assay: Inhibition of Escherichia coli DNA gyrase assessed as inhibition of DNA supercoiling activity using pBR322 DNA as substrate at […] after 3 hrs by agarose gel electrophoresis
[10] = tested on: Escherichia coli; assay: Inhibition of Escherichia coli DNA gyrase -mediated DNA relaxation using pBR322 DNA as substrate at […] after 1 hrs by agarose gel electrophoresis
[11] = tested on: Escherichia coli; assay: Inhibition of DNA gyrase mRNA expression in Escherichia coli measured up to 24 hrs by RT-PCR; type: functional, organism-based
[12] = tested on: Staphylococcus aureus; assay: Antibacterial activity against Staphylococcus aureus after 18 to 20 hrs by broth micro dilution assay; type: functional
[13] = tested on: Escherichia coli; assay: Antibacterial activity against Escherichia coli after 18 to 20 hrs by broth micro dilution assay; type: functional
[14] = tested on: Klebsiella pneumoniae; assay: Antibacterial activity against Klebsiella pneumoniae after 18 to 20 hrs by broth micro dilution assay; type: functional
[15] = tested on: Pseudomonas aeruginosa; assay: Antibacterial activity against Pseudomonas aeruginosa after 18 to 20 hrs by broth micro dilution assay; type: functional
[16] = tested on: Salmonella typhi; assay: Antibacterial activity against Salmonella typhi after 18 to 20 hrs by broth micro dilution assay; type: functional, Salmonella enterica subsp. enterica serovar Typhi; conditions: Salmonella enterica
[17] = tested on: Bacillus subtilis; assay: Antibacterial activity against Bacillus subtilis after 18 to 20 hrs by broth micro dilution assay; type: functional
[18] = tested on: Staphylococcus aureus; assay: Antibacterial activity against Staphylococcus aureus at 5 ug after 24 hrs by disc diffusion assay; type: functional; conditions: read-out: IZ
[19] = tested on: Staphylococcus aureus; assay: Antibacterial activity against Staphylococcus aureus at 10 ug after 24 hrs by disc diffusion assay; type: functional; conditions: read-out: IZ
[20] = tested on: Staphylococcus aureus; assay: Antibacterial activity against Staphylococcus aureus at 15 ug after 24 hrs by disc diffusion assay; type: functional; conditions: read-out: IZ
[21] = tested on: Staphylococcus aureus; assay: Antibacterial activity against Staphylococcus aureus at 20 ug after 24 hrs by disc diffusion assay; type: functional; conditions: read-out: IZ
[22] = tested on: Staphylococcus aureus; assay: Antibacterial activity against Staphylococcus aureus at 25 ug after 24 hrs by disc diffusion assay; type: functional; conditions: read-out: IZ
[23] = tested on: Escherichia coli; assay: Antibacterial activity against Escherichia coli at 5 ug after 24 hrs by disc diffusion assay; type: functional; conditions: read-out: IZ
[24] = tested on: Escherichia coli; assay: Antibacterial activity against Escherichia coli at 10 ug after 24 hrs by disc diffusion assay; type: functional; conditions: read-out: IZ
[25] = tested on: Escherichia coli; assay: Antibacterial activity against Escherichia coli at 15 ug after 24 hrs by disc diffusion assay; type: functional; conditions: read-out: IZ
[26] = tested on: Escherichia coli; assay: Antibacterial activity against Escherichia coli at 20 ug after 24 hrs by disc diffusion assay; type: functional; conditions: read-out: IZ
[27] = tested on: Escherichia coli; assay: Antibacterial activity against Escherichia coli at 25 ug after 24 hrs by disc diffusion assay; type: functional; conditions: read-out: IZ
[28] = tested on: Pseudomonas aeruginosa; assay: Antibacterial activity against Pseudomonas aeruginosa at 5 ug after 24 hrs by disc diffusion assay; type: functional; conditions: read-out: IZ
[29] = tested on: Pseudomonas aeruginosa; assay: Antibacterial activity against Pseudomonas aeruginosa at 10 ug after 24 hrs by disc diffusion assay; type: functional; conditions: read-out: IZ
[30] = tested on: Pseudomonas aeruginosa; assay: Antibacterial activity against Pseudomonas aeruginosa at 15 ug after 24 hrs by disc diffusion assay; type: functional; conditions: read-out: IZ
[31] = tested on: Pseudomonas aeruginosa; assay: Antibacterial activity against Pseudomonas aeruginosa at 20 ug after 24 hrs by disc diffusion assay; type: functional; conditions: read-out: IZ
[32] = tested on: Pseudomonas aeruginosa; assay: Antibacterial activity against Pseudomonas aeruginosa at 25 ug after 24 hrs by disc diffusion assay; type: functional; conditions: read-out: IZ
[33] = tested on: Klebsiella pneumoniae; assay: Antibacterial activity against Klebsiella pneumoniae at 5 ug after 24 hrs by disc diffusion assay; type: functional; conditions: read-out: IZ
[34] = tested on: Klebsiella pneumoniae; assay: Antibacterial activity against Klebsiella pneumoniae at 10 ug after 24 hrs by disc diffusion assay; type: functional; conditions: read-out: IZ
[35] = tested on: Klebsiella pneumoniae; assay: Antibacterial activity against Klebsiella pneumoniae at 15 ug after 24 hrs by disc diffusion assay; type: functional; conditions: read-out: IZ
[36] = tested on: Klebsiella pneumoniae; assay: Antibacterial activity against Klebsiella pneumoniae at 20 ug after 24 hrs by disc diffusion assay; type: functional; conditions: read-out: IZ
[37] = tested on: Klebsiella pneumoniae; assay: Antibacterial activity against Klebsiella pneumoniae at 25 ug after 24 hrs by disc diffusion assay; type: functional; conditions: read-out: IZ
[38] = tested on: Salmonella typhi; assay: Antibacterial activity against Salmonella typhi at 5 ug after 24 hrs by disc diffusion assay; type: functional, Salmonella enterica subsp. enterica serovar Typhi; conditions: Salmonella enterica, read-out: IZ

For `CCC1[C@@H]2c3c(c4ccccc4n(C)c3=O)OC(c3ccccc3)[C@H]2CN1OS(=O)(=O)c1ccc(C)cc1` (mixture of isomers), which zone of inhibition at 10 µg/disc [1] is on record?
Its zone of inhibition at 10 µg/disc is 16 mm.

And the zone of inhibition at 15 µg/disc [2]?
The zone of inhibition at 15 µg/disc was 18 mm.

And the zone of inhibition at 20 µg/disc [3]?
Its zone of inhibition at 20 µg/disc is 20 mm.

And the zone of inhibition at 25 µg/disc [4]?
Its zone of inhibition at 25 µg/disc is 22 mm.

And the zone of inhibition at 10 µg/disc [5]?
The zone of inhibition at 10 µg/disc was 7 mm.

What about the zone of inhibition at 15 µg/disc [6] of the same molecule?
The zone of inhibition at 15 µg/disc was 9 mm.

What about the zone of inhibition at 20 µg/disc [7] of the same molecule?
Its zone of inhibition at 20 µg/disc is 10 mm.

What about the zone of inhibition at 25 µg/disc [8] of the same molecule?
The zone of inhibition at 25 µg/disc was 12 mm.

And the “DNA gyrase inhibition (active/inactive)” value [9]?
Its value is “Active”.

And the inhibition [10]?
Its inhibition is “Active”.

And the “inhibition of gyrase mRNA expression (active/not active)” value [11]?
Its value is “Active”.

And the MIC50 [12]?
The MIC50 was 128 µg/mL.

What about the MIC90 [12] of the same molecule?
The MIC90 was 128 µg/mL.

And the MIC50 [13]?
The MIC50 was 128 µg/mL.

And the MIC90 [13]?
Its MIC90 is 128 µg/mL.

And the MIC50 [14]?
The MIC50 was 128 µg/mL.

And the MIC90 [14]?
Its MIC90 is 128 µg/mL.

And the MIC50 [15]?
The MIC50 was 128 µg/mL.

What about the MIC90 [15] of the same molecule?
Its MIC90 is 128 µg/mL.

And the MIC50 [16]?
Its MIC50 is 128 µg/mL.

What about the MIC90 [16] of the same molecule?
Its MIC90 is 128 µg/mL.

What about the MIC50 [17] of the same molecule?
Its MIC50 is 128 µg/mL.

What about the MIC90 [17] of the same molecule?
The MIC90 was 128 µg/mL.

What about the zone of inhibition at 5 µg/disc [18] of the same molecule?
Its zone of inhibition at 5 µg/disc is 9 mm.

What about the zone of inhibition at 10 µg/disc [19] of the same molecule?
Its zone of inhibition at 10 µg/disc is 12 mm.

What about the zone of inhibition at 15 µg/disc [20] of the same molecule?
Its zone of inhibition at 15 µg/disc is 13 mm.

And the zone of inhibition at 20 µg/disc [21]?
Its zone of inhibition at 20 µg/disc is 14 mm.

What about the zone of inhibition at 25 µg/disc [22] of the same molecule?
The zone of inhibition at 25 µg/disc was 17 mm.

What about the zone of inhibition at 5 µg/disc [23] of the same molecule?
The zone of inhibition at 5 µg/disc was 10 mm.

And the zone of inhibition at 10 µg/disc [24]?
Its zone of inhibition at 10 µg/disc is 16 mm.

And the zone of inhibition at 15 µg/disc [25]?
The zone of inhibition at 15 µg/disc was 18 mm.

And the zone of inhibition at 20 µg/disc [26]?
Its zone of inhibition at 20 µg/disc is 20 mm.

What about the zone of inhibition at 25 µg/disc [27] of the same molecule?
Its zone of inhibition at 25 µg/disc is 23 mm.

What about the zone of inhibition at 5 µg/disc [28] of the same molecule?
Its zone of inhibition at 5 µg/disc is 10 mm.

And the zone of inhibition at 10 µg/disc [29]?
The zone of inhibition at 10 µg/disc was 16 mm.

What about the zone of inhibition at 15 µg/disc [30] of the same molecule?
Its zone of inhibition at 15 µg/disc is 17 mm.

What about the zone of inhibition at 20 µg/disc [31] of the same molecule?
The zone of inhibition at 20 µg/disc was 22 mm.

And the zone of inhibition at 25 µg/disc [32]?
The zone of inhibition at 25 µg/disc was 24 mm.

And the zone of inhibition at 5 µg/disc [33]?
Its zone of inhibition at 5 µg/disc is 20 mm.

And the zone of inhibition at 10 µg/disc [34]?
The zone of inhibition at 10 µg/disc was 26 mm.

And the zone of inhibition at 15 µg/disc [35]?
Its zone of inhibition at 15 µg/disc is 30 mm.

What about the zone of inhibition at 20 µg/disc [36] of the same molecule?
The zone of inhibition at 20 µg/disc was 34 mm.

What about the zone of inhibition at 25 µg/disc [37] of the same molecule?
Its zone of inhibition at 25 µg/disc is 36 mm.

And the zone of inhibition at 5 µg/disc [38]?
Its zone of inhibition at 5 µg/disc is 10 mm.
